These results are taken from US7605178B2, “Therapeutic compounds” (Allergan, Inc., priority 2006, dated 2009).

In data set [1] the target is T1, EP2 (Homo sapiens, UniProt P43116). As to the kind of experiment: EP2 flipr. Type of data set: cell-based. An excerpt: (§1) U.S. patent application Ser. No. 11/553,143, filed on Oct. 26, 2006, incorporated by reference herein, describes the methods used to obtain the in vitro data in the table below.
The target of data set [2] is T1, EP2. As to the kind of experiment: EP2 cAMP. Type of data set: cell-based.
From the text: as §1

Data set [3] addresses T1, EP2. As to the kind of experiment: EP2 binding (Ki).
From the text: as §1

In data set [4] the target is T2, EP4 (Homo sapiens, UniProt P35408). As to the kind of experiment: EP4 flipr. Type of data set: cell-based.
T2 sequence (P35408 whole entry): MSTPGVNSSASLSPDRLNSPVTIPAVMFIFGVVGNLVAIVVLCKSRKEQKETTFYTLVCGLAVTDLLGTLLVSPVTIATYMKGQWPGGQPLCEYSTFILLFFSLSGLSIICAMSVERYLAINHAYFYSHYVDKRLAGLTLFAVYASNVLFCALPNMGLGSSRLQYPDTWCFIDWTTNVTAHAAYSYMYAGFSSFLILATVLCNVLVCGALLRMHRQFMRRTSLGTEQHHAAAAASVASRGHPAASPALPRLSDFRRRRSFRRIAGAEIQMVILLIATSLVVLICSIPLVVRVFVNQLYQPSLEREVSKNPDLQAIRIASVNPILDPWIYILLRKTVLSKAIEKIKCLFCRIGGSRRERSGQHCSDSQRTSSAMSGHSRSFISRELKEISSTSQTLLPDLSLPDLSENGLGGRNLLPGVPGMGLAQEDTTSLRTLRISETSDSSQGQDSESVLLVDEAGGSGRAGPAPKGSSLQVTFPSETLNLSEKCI
From the text: as §1

In data set [5] the target is T2, EP4. As to the kind of experiment: EP4 binding (KI).
From the text: as §1

Another data set has as its target T3, hEP3A (Homo sapiens, UniProt P43115).
T3 sequence (P43115 1-390): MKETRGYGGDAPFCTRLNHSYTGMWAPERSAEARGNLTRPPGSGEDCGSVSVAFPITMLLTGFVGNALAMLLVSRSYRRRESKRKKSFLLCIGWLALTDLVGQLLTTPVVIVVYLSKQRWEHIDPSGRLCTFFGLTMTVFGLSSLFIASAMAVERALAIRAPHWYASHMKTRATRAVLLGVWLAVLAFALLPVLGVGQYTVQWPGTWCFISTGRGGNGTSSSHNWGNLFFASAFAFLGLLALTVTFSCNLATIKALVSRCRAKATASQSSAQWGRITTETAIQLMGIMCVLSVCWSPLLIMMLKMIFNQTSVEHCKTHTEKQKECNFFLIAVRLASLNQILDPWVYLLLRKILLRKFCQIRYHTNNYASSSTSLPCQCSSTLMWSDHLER
As to the kind of experiment: Other receptors: hEP3A functional EC50. Type of data set: cell-based.
From the text: as §1

For the next data set, the target named is T4, hTP (Homo sapiens, UniProt P21731).
T4 sequence (P21731 1-343): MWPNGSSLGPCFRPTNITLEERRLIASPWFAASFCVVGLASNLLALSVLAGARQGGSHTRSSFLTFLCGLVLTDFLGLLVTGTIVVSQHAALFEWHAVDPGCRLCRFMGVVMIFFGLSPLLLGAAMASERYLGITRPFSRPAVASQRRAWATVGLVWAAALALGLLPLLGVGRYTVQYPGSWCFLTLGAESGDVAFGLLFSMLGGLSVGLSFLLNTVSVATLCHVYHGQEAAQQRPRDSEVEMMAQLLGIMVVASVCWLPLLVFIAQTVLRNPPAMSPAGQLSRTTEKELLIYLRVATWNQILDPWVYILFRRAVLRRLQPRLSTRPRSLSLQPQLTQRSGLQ
As to the kind of experiment: Other receptors: hTP functional EC50. Type of data set: cell-based.
From the text: as §1

A further data set addresses hIP (Homo sapiens, UniProt P43119). As to the kind of experiment: Other receptors: hIP functional EC50. Type of data set: cell-based.
From the text: as §1

The target of another data set is T5, hDP (Homo sapiens, UniProt Q13258).
T5 sequence (Q13258 1-359): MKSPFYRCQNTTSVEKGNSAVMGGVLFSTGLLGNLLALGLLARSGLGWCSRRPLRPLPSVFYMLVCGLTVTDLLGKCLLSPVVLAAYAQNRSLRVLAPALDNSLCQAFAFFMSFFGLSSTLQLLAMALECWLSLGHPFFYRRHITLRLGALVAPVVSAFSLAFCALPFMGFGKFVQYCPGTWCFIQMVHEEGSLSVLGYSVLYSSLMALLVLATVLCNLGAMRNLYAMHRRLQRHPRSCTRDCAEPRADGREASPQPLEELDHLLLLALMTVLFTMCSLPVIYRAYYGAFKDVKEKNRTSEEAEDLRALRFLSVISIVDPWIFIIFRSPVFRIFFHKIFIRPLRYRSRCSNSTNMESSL
As to the kind of experiment: Other receptors: hDP functional EC50. Type of data set: cell-based.
From the text: as §1

The next data set relates to normotensive dogs. As to the kind of experiment: Intraocular pressure and ocular surface hyperemia in normotensive dogs. Type of data set: in vivo. Particulars: 0.01%, once daily for 5 days. As to the method:
(§2) U.S. Pat. No. 7,091,231 describes the methods used for these in vivo tests.
5-(3-((1R,2R,3R,5R)-5-chloro-2-((3,5-dichlorophenylthio)methyl)-3-hydroxycyclopentyl)propyl)-thiophene-2-carboxylic acid (20) was tested in normotensive dogs at 0.01%, dosing once daily for 5 days. The maximum intraocular pressure (IOP) decrease from baseline was 6.3 mmHg (35%) at 6 h; the maximum ocular surface hyperemia (OSH) score was 1.7 at 52 h.

The test system of data set [6] is laser-induced hypertensive monkeys. As to the kind of experiment: Intraocular pressure in laser-induced hypertensive monkeys. Type of data set: in vivo. To be noted: 0.01%, one single day dose, at 24 h. As for the experimental part:
as §2
The composition and dosage regimen of In vivo example 1 was also tested in laser-induced hypertensive monkeys, using one single day dose. At 0.01%, the maximum IOP decrease from baseline was 13.9 mmHg (40%) at 24 h.

T1 sequence (P43116 whole entry): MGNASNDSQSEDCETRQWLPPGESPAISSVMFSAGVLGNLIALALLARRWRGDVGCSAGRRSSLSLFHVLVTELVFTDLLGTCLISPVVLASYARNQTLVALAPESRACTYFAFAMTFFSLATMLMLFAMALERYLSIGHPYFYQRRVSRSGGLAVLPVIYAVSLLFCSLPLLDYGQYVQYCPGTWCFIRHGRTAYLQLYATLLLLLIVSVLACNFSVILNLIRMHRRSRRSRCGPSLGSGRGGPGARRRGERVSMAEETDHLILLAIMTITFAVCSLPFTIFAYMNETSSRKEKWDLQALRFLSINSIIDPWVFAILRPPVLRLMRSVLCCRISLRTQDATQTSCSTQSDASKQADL
Chain of hIP (P43119 whole entry): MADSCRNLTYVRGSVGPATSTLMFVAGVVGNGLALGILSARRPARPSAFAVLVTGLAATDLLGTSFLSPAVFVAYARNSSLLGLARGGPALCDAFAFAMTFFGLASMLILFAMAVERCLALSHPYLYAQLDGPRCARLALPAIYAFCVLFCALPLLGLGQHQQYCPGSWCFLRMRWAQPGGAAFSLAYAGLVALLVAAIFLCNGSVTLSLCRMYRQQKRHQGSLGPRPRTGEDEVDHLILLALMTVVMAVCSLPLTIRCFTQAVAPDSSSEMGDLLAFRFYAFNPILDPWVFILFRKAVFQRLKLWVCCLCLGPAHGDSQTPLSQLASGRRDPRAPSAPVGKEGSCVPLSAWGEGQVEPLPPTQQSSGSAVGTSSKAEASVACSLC

The term EC50 denotes the concentration needed to bring the measured effect to its halfway point. The low end stands for a more potent agent, the high end for a less potent agent. One may read the Ki as a dissociation constant, usually derived from enzyme kinetics or from competition with a known ligand. For `O=C(O)CCC/C=C\C[C@@H]1[C@@H](CSc2cc(Cl)cc(Cl)c2)[C@H](O)C[C@H]1Cl` [compound 5, (Z)-7-[(1R,2R,3R,5R)-5-Chloro-2-(3,5-dichloro-phenylsulfanylmethyl)-3-hydroxy-cyclopentyl]-hept-5-enoic acid], the EC50 at EP2 [1] was 3360 nM; on EP2 [2], 0.4 nM; on EP4 [4] it was > 10000 nM; on hEP3A, > 10000 nM; at hTP it was 1720 nM; on hIP, > 10000 nM. For the same compound, on hDP, the EC50 was > 10000 nM. The Ki was found to be 22 nM on EP2 [3] and 376 nM at EP4 [5].

Take `CC(=O)N(C[C@@H]1[C@@H](C/C=C\CCCC(=O)O)[C@H](Cl)C[C@H]1O)c1cc(Cl)cc(Cl)c1` [compound 10, (Z)-7-((1R,2S,3R,5R)-2-{[Acetyl-(3,5-dichloro-phenyl)-amino]-methyl}-5-chloro-3-hydroxy-cyclopentyl)-hept-5-enoic acid]: the EC50 on EP2 [1] was 6370 nM; at EP2 [2], 29 nM; on hTP, 2680 nM; on hIP, > 10000 nM. Moreover, the values for the Ki at EP2 [3] and on EP4 [5] were 2090 nM and > 10000 nM, respectively.

As to `O=C(O)CCC/C=C\C[C@@H]1[C@@H](CNc2cc(Cl)cc(Cl)c2)[C@H](O)C[C@H]1Cl` [compound 11, (Z)-7-{(1R,2S,3R,5R)-5-Chloro-2-[(3,5-dichloro-phenylamino)-methyl]-3-hydroxy-cyclopentyl}-hept-5-enoic acid], the EC50 on EP2 [1] is 135 nM; on EP2 [2], 0.5 nM; on EP4 [4], > 10000 nM; on hEP3A, > 10000 nM; on hTP, > 10000 nM; at hIP, > 10000 nM. Besides, the Ki at EP2 [3] is 18 nM; at EP4 [5] it was 1030 nM.

With `O=C(O)c1ccc(CCC[C@@H]2[C@@H](CNc3cc(Cl)cc(Cl)c3)[C@H](O)C[C@H]2Cl)s1` [compound 15, 5-(3-((1R,2S,3R,5R)-5-chloro-2-((3,5-dichlorophenylamino)methyl)-3-hydroxycyclopentyl)propyl)-thiophene-2-carboxylic acid], the results for the EC50 at EP2 [1] and at EP2 [2] were > 10000 nM and 110 nM, respectively. Moreover, the affinity on EP2 [3] corresponds to a Ki of 336 nM.

On to `O=C(O)c1ccc(CCC[C@@H]2[C@@H](CSc3cc(Cl)cc(Cl)c3)[C@H](O)C[C@H]2Cl)s1` [compound 20, 5-(3-((1R,2R,3R,5R)-5-chloro-2-((3,5-dichlorophenylthio)methyl)-3-hydroxycyclopentyl)propyl)-thiophene-2-carboxylic acid], for which the EC50 is 59 nM at EP2 [1], 0.11 nM at EP2 [2] and > 10000 nM at EP4 [4]. For the same compound, the Ki on EP2 [3] turned out to be 0.3 nM; on EP4 [5], 828 nM. Moreover, in the data set on normotensive dogs (at 6 h), the “maximum intraocular pressure (IOP) decrease from baseline (percent)” value was found to be 35%. Also, the “maximum ocular surface hyperemia (OSH) score” value in the data set on normotensive dogs (at 52 h) came out at 1.7. Besides, the “maximum IOP decrease from baseline” value in [6] is 13.9 mmHg. In addition, the “maximum IOP decrease from baseline (percent)” value in data set [6] worked out at 40%.

`O=C(O)c1ccc(CCC[C@@H]2[C@@H](C[S+]([O-])c3cc(Cl)cc(Cl)c3)[C@H](O)C[C@H]2Cl)s1` (stereo partly drawn) [compound 22, 5-(3-((1R,2R,3R,5R)-5-chloro-2-((3,5-dichlorophenylsulfinyl)methyl)-3-hydroxycyclopentyl)propyl)-thiophene-2-carboxylic acid]: the EC50 came out at 101 nM at EP2 [1], 0.4 nM on EP2 [2] and 4210 nM on hTP. In addition, the Ki was 12 nM on EP2 [3] and > 10000 nM on EP4 [5].

On to `O=C(O)c1ccc(CCC[C@@H]2[C@@H](CSc3cc(F)cc(F)c3)[C@H](O)C[C@H]2Cl)s1` [compound 25, 5-(3-((1R,2R,3R,5R)-5-chloro-2-((3,5-difluorophenylthio)methyl)-3-hydroxycyclopentyl)propyl)-thiophene-2-carboxylic acid], for which the EC50 at EP2 [1] is 850 nM; at EP2 [2], 1.3 nM; at EP4 [4], > 10000 nM. In addition, the Ki was found to be 9 nM on EP2 [3] and 2330 nM on EP4 [5].
